According to US11179450B2, “Long chain antigen containing interepitope sequence that promotes antigen presentation to T cells” (MIE UNIVERSITY, priority 2013, dated 2021):

Test system: NY p157 specific CD8+ T cell clone 1G4 cells
Assay: Antigen presentation by LCL given CHP/long chain peptide vaccine, IFN-γ ELISPOT
Type: cell-based, human
Conditions: FIG. 10; NMW peptide complexed with CHP given to LCL as antigen-presenting cells
Excerpt: Long chain peptide antigens NMW, all containing three types of human CD8+ T cell epitope sequences (NY p157:HLA-A0201 restrictive, MA4 p143:HLA-A2402 restrictive, and WT1: HLA-A2402 restrictive p235), were synthesized. The interepitode sequences between the respective epitopes were the six consecutive amino acids shown in FIG. 10, namely Sequence Nos. 18-26. Each long chain peptide antigen was complexed with cholesterol-modified pullulan (CHP), which is a type of delivery system, and administered in vitro as a vaccine to an immortalized human B cell line (LCL). Using these human B cells as the antigen-presenting cells, they were co-cultured with CD8+ T cell clone 1G4 cells specific to NY p157 and the activation of the 1G4 cells due to antigen presentation was measured by an IFN-γ ELISPOT method. As a positive control, LCL administered with an NY p157 short chain peptide was used as the antigen-presenting cells, and as a negative control, LCL without antigen added was used as the antigen-presenting cells.
Cryostored LCL was rinsed with RPMI medium and suspended at 1.25×10^6/mL in X-VIVO15 medium. This was dispensed in 0.4 mL aliquots into polypropylene tubes, and 0.1 mL of a vaccine solution (0.1 mg/mL as peptide) was added to each tube. The cells were cultured for 24 hours at 37° C. in the presence of 5% CO2 and then used as antigen-presenting cells.
75 μL aliquots of anti-IFN-γ antibody for capture, diluted to an appropriate concentration, were dispensed into a 96-well plate (Millipore Corp., Multiscreen HA, MAHAS4510) specially designed for ELISPOT and left to stand overnight at 4° C. After discarding the liquid and rinsing with RPMI medium, 100 μL aliquots of RPMI medium containing 10% fetal bovine serum were dispensed and the plate was left to stand for not less than 1 hour at 37° C. The liquid was discarded, and the LCL prepared in (9) or (10) was adjusted to 5×10^4 cells/100 μL/well and added to each well. The cryostored CD8^+ T cell clones were thawed, rinsed, adjusted to 5×10^5/mL with RPMI medium, and thereafter added in 0.1 mL aliquots to each well. After culturing for 24 hours at 37° C. in the presence of 5% CO2, the liquid was discarded and the plate was rinsed well with phosphate buffered saline containing 0.05% Tween 20 (PBS-T). A biotin-labeled IFN-γ antibody for detection was diluted to an appropriate concentration and dispensed in 0.1 mL aliquots into each well. After letting stand overnight at 4° C., the plate was rinsed well with PBS-T, and an alkaline phosphatase-labeled streptavidin diluted to an appropriate concentration was added in 0.1 mL aliquots. After incubating for 1 hour at room temperature, the plate was rinsed well with PBS-T. A coloring solution was added in 0.1 mL aliquots and allowed to react for 5 minutes to 30 minutes at room temperature. When the formation of spots was observed, the reaction was stopped by rinsing with water.

Sequence	activation of 1G4 cells
SLLMWITQCGGGGGGNYKRCFPVIGGGGGGCMTWNQMNL (Long chain peptide antigen, containing three types of human CD8+ T cell recognition epitope sequences (NY p157, MA4 p143, and WT1 p235)) [NMW(G6)]	not clearly confirmed
SLLMWITQCSSSSSSNYKRCFPVISSSSSSCMTWNQMNL (Long chain peptide antigen, containing three types of human CD8+ T cell recognition epitope sequences (NY p157, MA4 p143, and WT1 p235)) [NMW(S6)]	clearly observed
SLLMWITQCNNNNNNNYKRCFPVINNNNNNCMTWNQML (SLLMWITQCNNNNNNNYKRCFPVINNNNNNCMTWNQMNL; Long chain peptide antigen, containing three types of human CD8+ T cell recognition epitope sequences (NY p157, MA4 p143, and WT1 p235)) [NMW(N6)]	clearly observed
SLLMWITQCQQQQQQNYKRCFPVIQQQQQQCMTWNQMNL (Long chain peptide antigen, containing three types of human CD8+ T cell recognition epitope sequences (NY p157, MA4 p143, and WT1 p235)) [NMW(Q6)]	clearly observed
SLLMWITQCAAAAAANYKRCFPVIAAAAAACMTWNQMNL (Long chain peptide antigen, containing three types of human CD8+ T cell recognition epitope sequences (NY p157, MA4 p143, and WT1 p235)) [NMW(A6)]	clearly observed
SLLMWITQCPPPPPPNYKRCFPVIPPPPPPCMTWNQMNL (Long chain peptide antigen, containing three types of human CD8+ T cell recognition epitope sequences (NY p157, MA4 p143, and WT1 p235)) [NMW(P6)]	not clearly confirmed
SLLMWITQCYYYYYYNYKRCFPVIYYYYYYCMTWNQMNL (Long chain peptide antigen, containing three types of human CD8+ T cell recognition epitope sequences (NY p157, MA4 p143, and WT1 p235)) [NMW(Y6)]	clearly confirmed

Test system: CD8+ T cells specific to MA p265, NY p81 and mERK2 9m
Assay: Specific CD8+ T cell induction by CHP/long chain peptide vaccines in mice, intracellular cytokine staining of spleen cells
Type: in vivo, BALB/c mice
Conditions: FIG. 1; MEN antigens complexed with CHP, subcutaneous, CpG oligo DNA adjuvant; spleen cells one week after final administration
Excerpt: Long chain peptide antigens MEN, all containing three types of mouse CD8+ T cell epitope sequences (MA p265 (Sequence No. 27), NY p81 (Sequence No. 29), and mERK2 9m (Sequence No. 28)), were synthesized. The interepitope sequences between the respective epitopes were respectively six consecutive tyrosines (Y6) (Sequence No. 1), six consecutive glycines (G6) (Sequence No. 2), six consecutive prolines (P6) (Sequence No. 3), or six consecutive threonines (T6) (Sequence No. 4). Each long chain peptide antigen was complexed with cholesterol-modified pullulan (CHP), which is a type of delivery system, and administered as a vaccine to a mouse. In the process of administration, CpG oligo DNA was coadministered as an adjuvant. Spleen cells were collected one week after the final administration and the frequencies of CD8+ T cells specific to the respective epitope sequences were measured by an intracellular cytokine staining method.
Long chain peptide antigens NME, all containing three types of mouse CD8+ T cell epitope sequences (MA p265 (Sequence No. 27), NY p81 (Sequence No. 29), and mERK2 9m (Sequence No. 28)), were synthesized. The antigens differ from the MEN sequences shown in FIG. 1 in the order of the three types of epitopes. The interepitope sequences between the respective epitopes were respectively six consecutive tyrosines (Y6) (Sequence No. 5), six consecutive glycines (G6) (Sequence No. 6), or six consecutive prolines (P6) (Sequence No. 7). Vaccines containing the respective long chain peptide antigens were administered to mice in the same manner as in FIG. 1 and the frequencies of CD8+ T cells specific to the respective epitope sequences were measured by the intracellular cytokine staining method.
Long chain peptide antigens MEN, ENM, and NME, all containing three types of mouse CD8+ T cell epitope sequences (MA p265 (Sequence No. 27), NY p81 (Sequence No. 29), and mERK2 9m (Sequence No. 28)), were synthesized. MEN, ENM, and […] in the order of the three types of epitopes. The interepitope sequences between the respective epitopes were each six consecutive tyrosines (Y6) (Sequence Nos. 1, 5 and 8). Vaccines containing the respective long chain peptide antigens were administered to mice in the same manner as in FIG. 1 and the frequencies of CD8+ T cells specific to the respective epitope sequences were measured by the intracellular cytokine staining method.
Each long chain peptide was dissolved in dimethyl sulfoxide (DMSO) at a concentration of 10 mg/mL. CHP was dissolved in 6 M urea-containing phosphate buffered saline (PBS) at a concentration of 10 mg/mL 1 mL (10 mg) of the long chain peptide solution and 20 mL (200 mg) of the CHP solution were mixed and left to stand at room temperature overnight in a dark place. The liquid mixture was transferred into a dialysis membrane (molecular weight cutoff: 3,500; Thermo Fisher Scientific, Inc.) and dialyzed for 2 hours to overnight at 4° C. against 0.6 M urea-containing PBS of a volume ratio of not less than 100 times as the dialysis outer solution. Dialysis was then performed for 2 hours to overnight at 4° C. against 0.06 M urea-containing PBS of a volume ratio of not less than 100 times as the dialysis outer solution. Dialysis was performed again for 2 hours to overnight at 4° C. against PBS of a volume ratio of not less than 100 times as the dialysis outer solution. The dialyzed inner solution was collected, filtered through a filtration sterilization filter of 0.45 μm or 0.22 μm pore size, and thereafter the UV absorption at 280 nm was measured to determine the final concentration of the long chain peptide from its molecular extinction coefficient.
Each CHP/long chain peptide complex as the vaccine and the CpG oligo DNA as the adjuvant were administered at the same time to a mouse. Administration was performed by subcutaneous injection on the back of the mouse. […]

Sequence	induction of specific CD8+ T cells corresponding to all three types of epitopes
SNPARYEFLTTTTTTQYIHSANVLTTTTTTRGPESRLL (Long chain peptide antigen, containing three types of mouse CD8+ T cell epitope sequences (MA p265, NY p81, and mERK2 9m)) [MEN(T6)]	clearly induced

Same assay, conditions: FIG. 3; NME antigens (different epitope order) complexed with CHP, CpG oligo DNA

Sequence	induction of specific CD8+ T cells corresponding to all three types of epitopes
RGPESRLLYYYYYYSNPARYEFLYYYYYYQYIHSANVL (Long chain peptide antigen, containing three types of mouse CD8+ T cell epitope sequences (MA p265, NY p81, and mERK2 9m)) [NME(Y6)]	clearly induced
RGPESRLLPPPPPPSNPARYEFLPPPPPPQYIHSANVL (Long chain peptide antigen, containing three types of mouse CD8+ T cell epitope sequences (MA p265, NY p81, and mERK2 9m)) [NME(P6)]	not observed for one or two types of epitopes among the three types of epitopes
RGPESRLLGGGGGGSNPARYEFLGGGGGGQYIHSANVL (Long chain peptide antigen, containing three types of mouse CD8+ T cell epitope sequences (MA p265, NY p81, and mERK2 9m)) [NME(G6)]	not observed for one or two types of epitopes among the three types of epitopes

Same assay, conditions: FIG. 4; MEN, ENM, NME epitope orders, interepitope sequence fixed at Y6

Sequence	induction of specific CD8+ T cells corresponding to all three types of epitopes
RGPESRLLYYYYYYSNPARYEFLYYYYYYQYIHSANVL (Long chain peptide antigen, containing three types of mouse CD8+ T cell epitope sequences (MA p265, NY p81, and mERK2 9m)) [NME(Y6)]	clearly induced
QYIHSANVLYYYYYYRGPESRLLYYYYYYSNPARYEFL (Long chain peptide antigen, containing three types of mouse CD8+ T cell epitope sequences (MA p265, NY p81, and mERK2 9m)) [ENM(Y6)]	clearly induced
